Test results as given in the supplement of paper PMC10599287.

Experiments:
[1] = compound: CCNC(=O)C#Cc1ccc2c(C(=Nc3ccc(CN(C)C)cc3)c3ccccc3)c(O)[nH]c2c1; test: absolute IC70 (antiproliferative, propidium iodide); higher = less potent; conditions: exposure time: 4 days
Description: (§1)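 Modified propidium iodide survival/proliferation assay in 294 human tumor cell lines (2D monolayer for solid tumors, suspension for hematologic lines) after 4 days of continuous exposure to 10 concentrations in half-log steps from 0.001 to 30 µM. Absolute IC70 was fitted by four-parameter nonlinear regression of T/C × 100 (%) values; 30 µM is the top dose.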

[2] = compound: O=C(NOCCO)c1ccc2cncn2c1Nc1ccc(I)cc1F [GDC-0623]; test: as above; conditions: exposure time: 4 days
Description: as §1

Test System	absolute IC70 [1]	absolute IC70 [2]
MEXF_1737	48 nM	11 nM
MEXF_1829	90 nM	19 nM
U-2197	2770 nM	> 30000 nM
GXA_3023	69 nM	1440 nM
PA-TU-8902	913 nM	> 30000 nM
PA-TU-8988T	773 nM	> 30000 nM
TT2609-C02	18 nM	12 nM
SN12C	665 nM	2960 nM
EM-2	277 nM	192 nM
PL-21	338 nM	365 nM
LXFL_1072	481 nM	16200 nM
BXF_1228	3230 nM	> 30000 nM
KG-1	33 nM	25100 nM
NCI-H322M	391 nM	105 nM
MEC-1	34 nM	> 30000 nM
LIM2405	31.6 nM	5.96 nM
SNU-620	225 nM	> 30000 nM
H69AR	688 nM	> 30000 nM
GXA_3011	97 nM	> 30000 nM
A2780	546 nM	24400 nM
MSTO-211H	494 nM	1480 nM
HCT116	51 nM	84 nM
OVCAR-5	694 nM	367 nM
LXFA_677	269 nM	168 nM
SNU-1	3000 nM	> 30000 nM
DAUDI	10 nM	> 30000 nM
BT-474	4060 nM	> 30000 nM

Test System	absolute IC70 [1]	absolute IC70 [2]
IM-9	7 nM	15 nM
KCL-22	250 nM	> 30000 nM
GXA_3067	583 nM	265 nM
SK-MES-1	617 nM	235 nM
SNB-75	1100 nM	2680 nM
DIFI	91 nM	522 nM
CXF_260	324 nM	194 nM
LOU-NH91	2140 nM	> 30000 nM
PANC-1	5080 nM	> 30000 nM
SNU-423	1320 nM	> 30000 nM
RAJI	4790 nM	> 30000 nM
U-266	1700 nM	> 30000 nM
SiHa	4800 nM	> 30000 nM
HCC33	2050 nM	> 30000 nM
MKN7	17500 nM	> 30000 nM
OVCAR-3	26100 nM	> 30000 nM
NOMO-1	10 nM	> 30000 nM
MEXF_2090	93 nM	4 nM
JURKAT	2330 nM	> 30000 nM
MEXF_535	99 nM	5 nM
MV4-11	8 nM	1320 nM
NCI-H522	102 nM	30000 nM
SNU-475	3550 nM	> 30000 nM
SW948	3000 nM	> 30000 nM
SK-BR-3	4070 nM	> 30000 nM
MOLM-1	1590 nM	> 30000 nM
RPMI-8226	1580 nM	> 30000 nM

Test System	absolute IC70 [1]	absolute IC70 [2]
PC-9	622 nM	> 30000 nM
GXA_3013	3280 nM	> 30000 nM
CAL-51	61 nM	> 30000 nM
U-251MG	1180 nM	783 nM
MEXF_462	25 nM	7170 nM
BXF_1352	45 nM	11 nM
PAXF_2035	855 nM	17200 nM
A204	614 nM	> 30000 nM
LXFL_1121	743 nM	> 30000 nM
NCI-H727	325 nM	23 nM
SK-UT-1B	1400 nM	5790 nM
NUGC-4	329 nM	8 nM
MFE-319	370 nM	5170 nM
KYSE-180	1000 nM	> 30000 nM
MKN45	489 nM	79 nM
HEC-1-A	1580 nM	> 30000 nM
DND-39	72 nM	> 30000 nM
PAXF_1986	414 nM	92 nM
MEG-01	20 nM	8 nM
SF268	1330 nM	> 30000 nM
SD1	4 nM	> 30000 nM
NCI-H2171	24 nM	> 30000 nM
RT112	42 nM	> 30000 nM
GXF_23132	20600 nM	> 30000 nM
OPM-2	336 nM	> 30000 nM
